Measured values taken from patent US9605004B2, “Chemical compounds” (SYNGENTA LIMITED, priority 2013, dated 2017).

How the values were obtained:
[1] = test system: a variety of test species; assay: Post-emergence herbicidal activity (Example 8b, Table 3); assay type: in vivo; details: application post-emergence, rate 1000 g/ha, evaluated after 13 days, scale 0-5; for Herbicidal damage score, ABUTH: Abutilon theophrasti; for Herbicidal damage score, ALOMY: Alopecurus myosuroides; for Herbicidal damage score, AMARE: Amaranthus retroflexus; for Herbicidal damage score, ECHCG: Echinochloa crus-galli; for Herbicidal damage score, SETFA: Setaria faberi; for Herbicidal damage score, ZEAMX: Zea mays
Summary of the method: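 Foliar application to 8-day-old plants using a 0.5% Tween 20 acetone/water carrier; phytotoxicity is scored visually from 0 to 5 after 13 days of growth at 24/16 °C day/night.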

[2] = test system: a variety of test species; assay: Pre-emergence herbicidal activity (Example 8a, Table 2); assay type: in vivo; set-up: key: 0 = no damage to plant, 5 = total damage to plant; details: application pre-emergence, rate 1000 g/ha, evaluated after 13 days
Summary of the method: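 Seeds sown in standard soil in pots, held one day in glasshouse (24/16 °C day/night, 14 h light, 65% humidity), then sprayed with aqueous solution of compound formulated in acetone/water 50:50 with 0.5% Tween 20. Grown on under same conditions, watered twice daily; damage scored after 13 days (0 = none, 5 = total).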

SMILES	Herbicidal damage score, ABUTH [1]	Herbicidal damage score, ALOMY [1]	Herbicidal damage score, AMARE [1]	Herbicidal damage score, ECHCG [1]	Herbicidal damage score, SETFA [1]	Herbicidal damage score, ZEAMX [1]	Pre-emergence herbicidal activity, damage score ABUTH [2]	Pre-emergence herbicidal activity, damage score ALOMY [2]	Pre-emergence herbicidal activity, damage score AMARE [2]	Pre-emergence herbicidal activity, damage score ECHCG [2]	Pre-emergence herbicidal activity, damage score SETFA [2]	Pre-emergence herbicidal activity, damage score ZEAMX [2]
COC1=C(C)C(O)N(c2cc(C(C)(C)C)n(C)n2)C1=O (stereo not drawn) [Compound H1, 1-(5-tert-butyl-1-methyl-pyrazol-3-yl)-2-hydroxy-4-methoxy-3-methyl-2H-pyrrol-5-one]	5	5	5	5	5	4	5	4	5	5	5	4
COC1=C(C)C(O)N(c2cc(C(C)(C)C)n(C)n2)C1=O (stereo not drawn) [Compound H2]	–	–	–	–	–	4	–	4	–	–	–	4
COC1=C(C)C(O)N(c2nn(C)c(C(C)(C)C)c2C#N)C1=O (stereo not drawn) [Compound H3]	5	5	4	5	5	3	4	4	4	5	4	1
COC1=C(C)C(O)N(c2cc(C(F)(F)F)n(C)n2)C1=O (stereo not drawn) [Compound H4]	5	5	5	5	5	5	5	4	5	5	5	4
CC1=C(Br)C(=O)N(c2cc(C(C)(C)C)[nH]n2)C1O (stereo not drawn) [Compound I1]	5	4	5	5	5	5	5	4	5	5	4	3
CC1=C(Br)C(=O)N(c2cc(C(C)(C)C)n(C)n2)C1O (stereo not drawn) [Compound J1]	5	5	5	5	5	4	5	3	5	5	4	2
CC1=C(Br)C(=O)N(c2cc(C(C)(C)C)n(C)n2)C1O (stereo not drawn) [Compound J2]	5	5	5	5	5	4	5	3	5	5	4	2
CC(C)=CCc1cc(N2C(=O)C(Br)=C(C)C2O)nn1C (stereo not drawn) [Compound J3]	4	1	2	2	4	0	0	0	0	0	0	0
CC1=C(Br)C(=O)N(c2cc(C(F)(F)F)n(C)n2)C1O (stereo not drawn) [Compound J4]	5	5	5	5	5	5	5	4	5	4	5	4
CC1=C(Br)C(=O)N(c2nn(C)c(C(C)(C)C)c2C#N)C1O (stereo not drawn) [Compound L1]	5	5	5	5	5	3	5	4	5	5	5	3
CCC1=C(Br)C(=O)N(c2nn(C)c(C(C)(C)C)c2C#N)C1O (stereo not drawn) [Compound L2]	5	5	5	5	5	1	4	3	3	4	3	0
CCCC1=C(Br)C(=O)N(c2nn(C)c(C(C)(C)C)c2C#N)C1OC(=O)CC (stereo not drawn) [Compound L3]	5	4	4	5	5	2	4	3	3	4	3	2
CCCC1=C(Br)C(=O)N(c2nn(C)c(C(C)(C)C)c2C#N)C1O (stereo not drawn) [Compound L4]	5	5	5	5	5	2	4	4	3	5	4	2
CC1=C(Br)C(=O)N(c2cc3n(n2)CCC3(C)C)C1O (stereo not drawn) [Compound M1]	5	5	5	5	5	4	5	4	5	5	5	4
CC1=C(Br)C(=O)N(c2cc3n(n2)CCCC3(C)C)C1O (stereo not drawn) [Compound M2]	5	5	5	5	5	3	5	4	5	5	4	3
CC1=C(Br)C(=O)N(c2cc3n(n2)CCSC3(C)C)C1O (stereo not drawn) [Compound M3]	5	5	5	5	5	1	4	3	5	3	2	0
